Measured values: article PMC8858318, “Targeting autophagy peptidase ATG4B with a novel natural product inhibitor Azalomycin F4a for advanced gastric cancer” (Cell Death & Disease, 2022)
pKd: −log10 of the molar value.

Molecular target: T1, ATG4B (Homo sapiens, UniProt Q9Y4P1)
T1 sequence (Q9Y4P1 1-393): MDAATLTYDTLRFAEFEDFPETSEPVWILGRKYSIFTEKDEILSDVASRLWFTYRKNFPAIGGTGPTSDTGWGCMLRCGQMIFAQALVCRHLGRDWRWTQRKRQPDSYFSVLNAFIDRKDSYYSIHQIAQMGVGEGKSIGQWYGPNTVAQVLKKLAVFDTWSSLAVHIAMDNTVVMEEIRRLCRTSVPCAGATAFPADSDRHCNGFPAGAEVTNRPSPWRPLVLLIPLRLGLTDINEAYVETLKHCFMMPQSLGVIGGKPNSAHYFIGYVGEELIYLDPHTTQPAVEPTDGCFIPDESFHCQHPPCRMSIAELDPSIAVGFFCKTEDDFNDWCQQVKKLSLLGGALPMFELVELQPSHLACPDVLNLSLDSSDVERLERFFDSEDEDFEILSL
Experiment: SPR (Biacore 8K, immobilized purified ATG4B); also FRET activity assay and gel-based FRET-GATE16 cleavage assay
Assay type: binding

- pKd: 4.93
SMILES: CN=C(N)NCCC/C=C/CCCC(C)C1OC(=O)/C(C)=C\C=C/C(C)C(O)CC(O)C(C)C(O)CCC(C)C(O)CC2(O)OC(CC(OC(=O)CC(=O)O)CC(O)CC(O)CC(O)/C(C)=C\C=C/C1C)CC(O)C2O (stereo not shown) [Am-F4a, Azalomycin F4a]
